Measured values: PubChem BioAssay AID248 (DTP/NCI, 2004)
Values joined by “and” are separate entries in the source; they are usually repeats but may differ in a detail not shown here. Equal entries are not always repeated. Inconclusive results and toxic doses are left out. No stated cut-off is given here; in the data, active means T/C of 150% or more; inactive means T/C below 125%.

System: L1210 leukemia ip in BDF1 mice, survival T/C
Assay: NCI In Vivo Anticancer Drug Screen. Data for tumor model L1210 Leukemia (intraperitoneal) in B6D2F1 (BDF1) mice
Details: endpoint: mean survival time, higher = longer survival
Summary of the method: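 Transplanted-tumor mice were given test agent; controls received vehicle only. Survival readings from the two groups were divided (treated over control).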

[1] = dose: 100.0 mg/kg/injection, schedule: Q01DX001 (ip), vehicle: saline
[2] = dose: 100.0 mg/kg/injection, schedule: Q04DX003 (ip), vehicle: saline
[3] = dose: 200.0 mg/kg/injection, schedule: Q01DX001 (ip), vehicle: saline
[4] = dose: 200.0 mg/kg/injection, schedule: Q04DX003 (ip), vehicle: saline
[5] = dose: 400.0 mg/kg/injection, schedule: Q01DX001 (ip), vehicle: saline
[6] = dose: 400.0 mg/kg/injection, schedule: Q04DX003 (ip), vehicle: saline
[7] = dose: 100.0 mg/kg/injection, schedule: Q04DX002 (ip), vehicle: saline
[8] = dose: 200.0 mg/kg/injection, schedule: Q04DX002 (ip), vehicle: saline
[9] = dose: 100.0 mg/kg/injection, schedule: Q04DX003 (ip), vehicle: Klucel (hydroxypropylcellulose) (HPC)
[10] = dose: 200.0 mg/kg/injection, schedule: Q04DX003 (ip), vehicle: Klucel (hydroxypropylcellulose) (HPC)
[11] = dose: 400.0 mg/kg/injection, schedule: Q04DX003 (ip), vehicle: Klucel (hydroxypropylcellulose) (HPC)

Measured: T/C

CCCCCCCCC/C=N\N=C(N)N
inactive: dose: 15.0 mg/kg/injection, schedule: Q01DX Z (ip), vehicle: carboxymethylcellulose (CMC) 101 % of control | dose: 30.0 mg/kg/injection, schedule: Q01DX Z (ip), vehicle: carboxymethylcellulose (CMC) 108 % of control | dose: 60.0 mg/kg/injection, schedule: Q01DX Z (ip), vehicle: carboxymethylcellulose (CMC) 97 % of control | dose: 120.0 mg/kg/injection, schedule: Q01DX Z (ip), vehicle: carboxymethylcellulose (CMC) 103 % of control and 104 % of control | dose: 120.0 mg/kg/injection, schedule: Q01DX Z (oral), vehicle: carboxymethylcellulose (CMC) 104 % of control | dose: 240.0 mg/kg/injection, schedule: Q01DX Z (ip), vehicle: carboxymethylcellulose (CMC) 100 % of control | dose: 240.0 mg/kg/injection, schedule: Q01DX Z (oral), vehicle: carboxymethylcellulose (CMC) 104 % of control | dose: 480.0 mg/kg/injection, schedule: Q01DX Z (oral), vehicle: carboxymethylcellulose (CMC) 102 % of control | dose: 960.0 mg/kg/injection, schedule: Q01DX Z (oral), vehicle: carboxymethylcellulose (CMC) 104 % of control

COC(=O)C1OC(CO)C(O)C1O (centres undefined)
inactive: [1] 105 % of control | [2] 110 % of control | [3] 113 % of control | [4] 107 % of control | [5] 97 % of control | [6] 110 % of control

OCCOc1ccc(Cl)cc1Cl
inactive: dose: 50.0 mg/kg/injection, schedule: Q01DX001 (ip), vehicle: other 101 % of control | dose: 75.0 mg/kg/injection, schedule: Q01DX009 (ip), vehicle: saline with Tween-80 101 % of control | dose: 100.0 mg/kg/injection, schedule: Q01DX001 (ip), vehicle: other 103 % of control | dose: 150.0 mg/kg/injection, schedule: Q01DX009 (ip), vehicle: saline with Tween-80 98 % of control | dose: 200.0 mg/kg/injection, schedule: Q01DX001 (ip), vehicle: other 103 % of control | dose: 300.0 mg/kg/injection, schedule: Q01DX009 (ip), vehicle: saline with Tween-80 109 % of control

CCCCCCCN=C(N)c1ccc(C(=O)OC2CCCCC2)cc1
inactive: [1] 96 % of control

O=C(O)C(O)(Cc1ccccc1)C(=O)C(O)C(O)CO (centres undefined)
inactive: dose: 50.0 mg/kg/injection, schedule: Q04DX002 (ip), vehicle: saline 87 % of control | [7] 106 % of control | [8] 91 % of control

O=C(O)c1c(F)c(F)c(Oc2c(F)c(F)c(F)c(F)c2F)c(F)c1F
inactive: [9] 95 % of control | [10] 93 % of control

O=C(c1ccc(O)c(C(=O)O)c1)c1ccc(O)c(C(=O)O)c1
inactive: dose: 100.0 mg/kg/injection, schedule: Q01DX001 (ip), vehicle: carboxymethylcellulose (CMC) 95 % of control | dose: 200.0 mg/kg/injection, schedule: Q01DX001 (ip), vehicle: carboxymethylcellulose (CMC) 95 % of control | dose: 400.0 mg/kg/injection, schedule: Q01DX001 (ip), vehicle: carboxymethylcellulose (CMC) 101 % of control

CN1C(=O)CC(C(=O)CBr)(c2ccccc2)C1=O (centres undefined)
inactive: dose: 25.0 mg/kg/injection, schedule: Q04DX003 (ip), vehicle: saline with Tween-80 109 % of control | dose: 50.0 mg/kg/injection, schedule: Q04DX003 (ip), vehicle: saline with Tween-80 101 % of control

COC1OC(CO)C(O)C(OC)C1OC (centres undefined)
inactive: [2] 93 % of control | [4] 103 % of control | [6] 106 % of control

CONC(N)=O
inactive: dose: 100.0 mg/kg/injection, schedule: Q01DX Z (ip), vehicle: carboxymethylcellulose (CMC) 100 % of control | dose: 200.0 mg/kg/injection, schedule: Q01DX Z (ip), vehicle: carboxymethylcellulose (CMC) 98 % of control | dose: 350.0 mg/kg/injection, schedule: Q01DX Z (ip), vehicle: carboxymethylcellulose (CMC) 100 % of control and 101 % of control | dose: 500.0 mg/kg/injection, schedule: Q01DX Z (ip), vehicle: carboxymethylcellulose (CMC) 98 % of control | dose: 750.0 mg/kg/injection, schedule: Q01DX Z (ip), vehicle: carboxymethylcellulose (CMC) 98 % of control

CCCCCCCCCCCCCCCCCC(=O)N/N=C/CCc1ccccc1
inactive: dose: 100.0 mg/kg/injection, schedule: Q01DX009 (ip), vehicle: saline with Tween-80 87 % of control

O=C(O)CSC(SCC(=O)O)c1ccccc1Cl
inactive: dose: 50.0 mg/kg/injection, schedule: Q04DX003 (ip), vehicle: Klucel (hydroxypropylcellulose) (HPC) 96 % of control | [9] 100 % of control | [10] 96 % of control

Nc1nc(N)c(CCCOc2ccc(NC(=O)c3cccc(S(=O)OF)c3)cc2)c(N)n1 (centres undefined)
inactive: dose: 0.8 mg/kg/injection, schedule: Q01DX015 (ip), vehicle: saline 97 % of control | dose: 4.0 mg/kg/injection, schedule: Q01DX015 (ip), vehicle: saline 97 % of control | dose: 20.0 mg/kg/injection, schedule: Q01DX015 (ip), vehicle: saline 95 % of control | dose: 100.0 mg/kg/injection, schedule: Q01DX015 (ip), vehicle: saline 106 % of control | dose: 133.0 mg/kg/injection, schedule: Q01DX015 (ip), vehicle: saline 91 % of control

O=C1C=C(OCc2ccccc2)C(=O)C(OCc2ccccc2)=C1
inactive: [9] 93 % of control | [10] 96 % of control | [11] 95 % of control

CCCCCC(=O)N1CCCCC1CC (centres undefined)
inactive: dose: 100.0 mg/kg/injection, schedule: Q04DX002 (ip), vehicle: Klucel (hydroxypropylcellulose) (HPC) 92 % of control | dose: 200.0 mg/kg/injection, schedule: Q04DX002 (ip), vehicle: Klucel (hydroxypropylcellulose) (HPC) 92 % of control

O=C(COc1ccc([N+](=O)[O-])cc1)Nc1cccnc1
inactive: dose: 100.0 mg/kg/injection, schedule: Q04DX003 (ip), vehicle: saline with Tween-80 96 % of control | dose: 200.0 mg/kg/injection, schedule: Q04DX003 (ip), vehicle: saline with Tween-80 95 % of control | dose: 400.0 mg/kg/injection, schedule: Q04DX003 (ip), vehicle: saline with Tween-80 96 % of control

Nc1nc(N)c(CCCOc2ccccc2)c(N)n1
inactive: [7] 105 % of control | [8] 105 % of control

Cc1c(O)c2ccc(Cl)cc2n(C)c1=O
inactive: dose: 100.0 mg/kg/injection, schedule: Q04DX002 (ip), vehicle: saline with Tween-80 100 % of control | dose: 200.0 mg/kg/injection, schedule: Q04DX002 (ip), vehicle: saline with Tween-80 94 % of control | dose: 400.0 mg/kg/injection, schedule: Q04DX002 (ip), vehicle: saline with Tween-80 103 % of control

OC1(C2(O)CCCCC2)CCCCC1
inactive: dose: 100.0 mg/kg/injection, schedule: Q04DX002 (ip), vehicle: gum acacia 101 % of control | dose: 200.0 mg/kg/injection, schedule: Q04DX002 (ip), vehicle: gum acacia 104 % of control | dose: 400.0 mg/kg/injection, schedule: Q04DX002 (ip), vehicle: gum acacia 96 % of control

CC1=NN(c2ccccc2)C(=O)C1
inactive: dose: 50.0 mg/kg/injection, schedule: Q01DX001 (ip), vehicle: saline 94 % of control | dose: 100.0 mg/kg/injection, schedule: Q01DX001 (ip), vehicle: saline with Tween-80 104 % of control | [1] 94 % of control | dose: 200.0 mg/kg/injection, schedule: Q01DX001 (ip), vehicle: saline with Tween-80 101 % of control | [3] 90 % of control | dose: 400.0 mg/kg/injection, schedule: Q01DX001 (ip), vehicle: saline with Tween-80 101 % of control | [5] 102 % of control

Cc1cc(Cl)c(Cl)cc1NC(=O)c1cccc([N+](=O)[O-])c1
inactive: dose: 100.0 mg/kg/injection, schedule: Q01DX009 (ip), vehicle: Klucel (hydroxypropylcellulose) (HPC) 93 % of control | dose: 200.0 mg/kg/injection, schedule: Q01DX009 (ip), vehicle: Klucel (hydroxypropylcellulose) (HPC) 96 % of control | dose: 400.0 mg/kg/injection, schedule: Q01DX009 (ip), vehicle: Klucel (hydroxypropylcellulose) (HPC) 100 % of control

O=C(Cl)C(c1ccccc1)c1ccccc1
inactive: [9] 108 % of control | [10] 98 % of control | [11] 96 % of control

C/C=C/C[P+](c1ccccc1)(c1ccccc1)c1cccc2ccccc12
inactive: dose: 25.0 mg/kg/injection, schedule: Q04DX002 (ip), vehicle: saline with Tween-80 94 % of control
